Results taken from PubChem BioAssay (NCI).
“And” between values parts separate entries of the source, which are not always exact repeats. Equal values may be shown once.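 96-well plates; 48 h exposure; 5 concentrations. Endpoints by linear interpolation between flanking doses. Not reached: highest tested concentration assigned. Abbreviation: GI50, concentration required for 50% inhibition of growth. TGI denotes the concentration required for complete inhibition of growth.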

Test system: MDA-MB-468 breast
Experiment: NCI tumour cell line growth inhibition, 48 h

SMILES	GI50	TGI
O=C1NC(=O)C(c2c[nH]c3ccccc23)=C1c1ccccc1	> 25000 nM	> 25000 nM
CNc1ncc2cc(-c3cc(NC(=O)NCCC(C)(C)C)c(F)cc3C)c(C)nc2n1	–	> 67100 nM
O=c1c2cc(-c3ccc(F)cc3F)ccc2n(O)c(=O)n1-c1cccc(C(F)(F)F)c1	1680 nM	5400 nM
COC(=O)c1ccc2c(C(=Nc3ccc(N(C)C(=O)CN4CCN(C)CC4)cc3)c3ccccc3)c(O)[nH]c2c1	2130 nM	9780 nM
Cc1cc(N)cc(C)c1-c1c(Br)cc(N)cc1Br	2090 nM	6580 nM
N[C@@H](CSSC[C@H](N)C(=O)N1CCn2cc(-c3ccccc3)nc2[C@@H]1CC1CCCCC1)C(=O)N1CCn2cc(-c3ccccc3)nc2[C@@H]1CC1CCCCC1	1070 nM	2530 nM
Oc1cccc(-c2nc(-c3ccccc3)[nH]c2-c2ccncc2)c1	2080 nM	11400 nM
Cc1[nH]n(-c2cccc(Cl)c2)c(=O)c1/C=C1\C=c2ccccc2=CC1=O	17600 nM	74700 nM
CCCc1n(Cc2ccc3ccccc3n2)cc[n+]1Cc1ccc2ccccc2n1	232 nM	1550 nM
COCCOC1=C(Cl)C(=O)c2c(O)ccc(O)c2C1=O	899 nM	2450 nM
CCCCNNC(=O)c1ccc(-c2cccc(F)c2F)cc1	1710 nM	6060 nM
COc1ccc(/C=C2/CN(CCC#N)C/C(=C\c3ccc(OC)cc3)C2=O)cc1	1390 nM	4950 nM
CNCCNc1nc2ccccc2c2c(=O)c3cccc(C)c3sc12	892 nM	1940 nM
N#Cc1ccc(/C=C/C(=O)c2ccccc2)cc1	5950 nM and 1890 nM	21100 nM and 5440 nM
CN1CCN(c2ccc(Nc3ncc4cc5n(c4n3)C3(CCCCC3)CNC5=O)nc2)CC1	10900 nM	36000 nM
Cn1cc(C2=C(c3c(S(C)=O)n(C)c4ccccc34)C(=O)NC2=O)c2ccccc21 (centres undefined)	6710 nM	> 25000 nM
COC(=O)[C@]12CC[C@@H](C)[C@H](C)[C@@H]1C1=CC[C@@H]3[C@@]4(C)CC(=O)[C@H](O)[C@@](C)(CO)[C@@H]4C(=O)C[C@@]3(C)[C@]1(C)CC2	15200 nM	32200 nM
FC(F)(F)c1ccc(NCc2nc3ccccc3[nH]2)cc1	16700 nM	55600 nM
CCN(CCO)CCCOc1ccc2c(Nc3cc(CC(=O)Nc4cccc(F)c4)[nH]n3)ncnc2c1	1040 nM and 109 nM	18900 nM
Cc1cc(C#Cc2ccccc2)ccc1-n1c(/C=C/c2cc(O)ccc2O)nc2ccccc2c1=O	1610 nM	4190 nM

SMILES	GI50	TGI
COc1cc(-c2nn(-c3cccc(NC(=O)CCN4CCN(C)CC4)c3)cc2-c2ccncc2)ccc1Cl	997 nM	2850 nM
CC1(O)COCCCCOc2c(CN)cccc2NC(=O)c2nc(cnc2N)-c2ccc(cc2)S(=O)(=O)C(C)(C)C1 (centres undefined)	939 nM	2520 nM
COc1cc(Cn2c(SCC(=O)Nc3ccc(Cl)cc3)nc3ccccc3c2=O)cc(OC)c1OC	7220 nM	42400 nM
CCCCOc1ccc(S(=O)(=O)N2CCN(c3nc(C)cc(N4CCOCC4)n3)CC2)cc1	2690 nM	> 100000 nM
N=C1/C(=C2\Nc3ccccc3S2)CC(=O)N1c1ccc(SC(F)F)cc1	> 100000 nM	> 100000 nM
CS(=O)(=O)N1CCc2c(-c3cnc(N)nc3)nc(N3CCOCC3)nc21	305 nM and 264 nM	3000 nM and 2300 nM
C#Cc1ccc(-n2c(/C=C/c3ccc4ccccc4c3)nc3ncccc3c2=O)cc1	963 nM	7770 nM
O=C(O)c1cn(C2CC2)c2cc(N3CCN(Cc4ccc5ccccc5c4O)CC3)c(F)cc2c1=O	4550 nM	> 100000 nM
O=C(Nc1ccccc1)Nc1ccc(Cl)c(Cl)c1	2830 nM	13900 nM
O=C1NC(=N[C@H](CO)c2ccccc2)S/C1=C\c1ccc2ncccc2c1	2060 nM	8970 nM
O=C(CSc1ncc(-c2ccccc2)n1-c1ccccc1)Nc1ccc(-c2nc3ccccc3s2)cc1	1350 nM	4960 nM
CNCCN(C)Cc1cn[nH]c1-c1ccc(OC2CC(OCCC3CCOCC3)C2)cc1 (centres undefined)	33700 nM	> 100000 nM
Fc1ccc(-c2c(-c3ccncc3)[nH]c3nccnc23)cc1	4480 nM	> 21500 nM
COc1ccc2c(c1)N(CCO)C1=C(C(=O)OC1)C2c1ccc(OC)c(OC)c1 (centres undefined)	1740 nM	7570 nM
CC(C)[C@H](C(=O)O[C@@H]1/C=C/C(=O)O[C@@H](C)CCC/C=C/[C@@H]2C[C@H](O)C[C@H]21)N(C)C	1610 nM	4620 nM
O=C1/C(=C/c2ccccc2[N+](=O)[O-])COc2ccc(O)c(O)c21	608 nM	2940 nM
OCc1ccc(N(Cc2ccc(F)cc2)CC2CCC2)cc1Cl	184 nM	610 nM
CCN1C(=O)N(CC)C2C1NN=c1s/c(=C\c3ccc(OC)cc3)c(=O)n12 (centres undefined)	130 nM	> 60800 nM
COc1ccc(-c2nc3sccn3c2-c2ccnc(NCCCNS(=O)(=O)c3ccc(F)cc3)n2)cc1	1550 nM	6480 nM
COc1ccc2nc3cc(Cl)ccc3c(Nc3cc(C(C)C)c(O)cc3C)c2c1	1560 nM	4600 nM
